Measurements taken from article PMC10671052, “Naphthyl-Substituted Indole and Pyrrole Carboxylic Acids as Effective Antibiotic Potentiators—Inhibitors of Bacterial Cystathionine γ-Lyase” (International Journal of Molecular Sciences, 2023).
Like-named read-outs stand apart in the source and are kept apart here.

What was measured:
[1] = molecular target: T1, human cystathionine-γ-lyase (hCSE) (Homo sapiens, UniProt P32929); assay: IC50 assay: inhibition of H2S production by purified hCSE, WSP5 fluorescent probe; assay type: biochemical; settings: for IC50: purified hCSE 0.02 μM, 100 μM L-cysteine, WSP5 probe, mean ± SD
T1 construct: His6-TEV (N, cleaved yes); host or cells: E. coli
Experimental: (§1) Fluorescence spectrophotometry-based inhibitory activity toward purified bCSE and hCSE was measured in a 96-well nonbinding black plate (Greiner, Kremsmunster, Austria) at 100 μL of the reaction mixture per well. bCSE and hCSE (0.02 μM) were preincubated in a thermoshaker (Biosan, Riga, Latvia) (30 °C, 300 rpm) for 40 min in 50 mM sodium phosphate buffer (pH 8.0), supplemented with 10 μM pyridoxal 5′-phosphate (Sigma-Aldrich, St. Louis, MO, USA), 0.1% of Tween 20 (Sigma-Aldrich, St. Louis, MO, USA), and 1.2 μM Washington State Probe-5 (Cayman Chemical, Ann Arbor, MI, USA) (excitation: 500 nm, emission: 530 nm) at different concentrations of a tested inhibitor. The reaction was initiated by the addition of 100 μM L-cysteine (TCI, Chennai, Tamil Nadu, India) in 50 mM sodium phosphate buffer pH 8.0 to the reaction mixture, and the enzymatic activity was monitored for 12 h using a CLARIOstar Plus instrument (BMG LABTECH GmbH, Ortenberg, Germany). The 100 µM L-cysteine concentration used in the experiments corresponds to the maximal reported intracellular concentration in bacteria. The data were normalized to the positive and negative controls, and IC50 values were obtained by fitting to a four-parameter sigmoidal curve (inhibitor vs. response, variable slope model) in GraphPad Prism 8 software (GraphPad by Dotmatics, Boston, MA, USA). Each experiment was conducted with 2–3 technical replicates. IC50 values were means of at least two independent experiments.
(§2) For the production of S. aureus cystathionine-γ-lyase (bCSE) and of human cystathionine-γ-lyase (hCSE), plasmids pSUMO:saCSE (Addgene # 54336) and pNIC28-Bsa4 (Addgene # 42365) were employed. Cultivation of a competent E. coli cell strain (Thermo Fisher Scientific, Waltham, MA, USA), transformed with a target plasmid, was carried out on a selective solid medium with kanamycin. Bacterial cells harboring the plasmid vector were cultured at 37 °C and 180 rpm until OD600 = 0.65. Then, isopropyl β-D1-thiogalactopyranoside (IPTG) was added to a final concentration of 1 mM. To obtain bCSE, the cells were cultured for 3.5 h at 37 °C; to obtain hCSE, the cells were cultured for 18–20 h at 25 °C. After centrifugation, cells were resuspended in a buffer composed of 50 mM Tris–HCl, at a pH of 8.0, and 300 mM sodium chloride. After that, the cells were lysed by ultrasonication, with a pulse duration of 15 s and an interval between pulses of 15 s. The amplitude of the ultrasonic vibrations was 50% of the maximum. After lysis, samples were centrifuged for 15 min (20,000× g at 4 ℃). The pH of the supernatant obtained after the centrifugation was adjusted to 7.5 by the addition of a 1 M solution of Tris–OH. Then, the test sample was subjected to filtration through a polyethersulfone membrane with a pore diameter of 0.22 μm.

[2] = molecular target: S. aureus cystathionine-γ-lyase (bCSE) (Staphylococcus aureus, UniProt A0A0H3K724); assay: IC50 assay: inhibition of H2S production by purified bCSE, WSP5 fluorescent probe; assay type: biochemical
Experimental: as §1, §2

[3] = system: P. aeruginosa GIMC5016:PA1840/36/2015; assay: MIC of antibiotics alone and with potentiators, clinical isolate; settings: P. aeruginosa GIMC5016:PA1840/36/2015, no potentiator
Experimental: (§3) Overnight (ON) culture of a specific strain was grown in the liquid Luria–Bertani nutrient medium (LB broth, BD Difco) for 18 h at 37 °C, with agitation at 180 rpm using an Innova 44R orbital shaker (Eppendorf, Hamburg, Germany). After a certain period, 50 µL of the ON culture was transferred into 5 mL of the LB medium and grown for 3 h at 37 °C with agitation. Growth in the liquid medium was assessed by means of turbidity of the suspension, measured using a Densi-La-Meter II densitometer (Erba Lachema s.r.o., Brno, Czech Republic). Then, the bacterial suspension was diluted to the concentration 10^6 cells/mL with sterile LB and used as a seed culture [38, 39].
(§4) For the assessment of MICs, 96-well microtiter plates were utilized at 200 µL of a medium per well. Each well was filled with 100 µL of the seed culture. After that, 10 µL of a solution of each tested synthetic compound (potentiators) was added into each experimental well. Finally, 90 µL of twofold serial dilutions of an antibiotic in a sterile LB was added into individual wells.
(§5) As a positive control, we set up wells with 100 µL of the bacterial culture and 100 µL of the sterile LB medium. […] Negative-control wells contained 200 µL of the sterile medium. The plates were incubated in a thermostat for 18–20 h at 37 °C. The bacterial growth was assessed as optical density at 600 nm on a CLARIOstar microplate reader (BMG LABTECH GmbH, Ortenberg, Germany)).

[4] = system: P. aeruginosa GIMC5016:PA1840/36/2015; assay: Susceptibility of isolate to main antimicrobial agents; assay type: cell-based
[5] = system: A. baumannii GIMC5509:ABT-52Ts19; assay: MIC of antibiotics alone and with potentiators, clinical isolate; settings: A. baumannii GIMC5509:ABT-52Ts19, no potentiator
Experimental: as §3, §4, §5

[6] = HEK293 cytotoxicity assay (Alamar Blue); assay type: cell-based; settings: human, HEK293, 72 h
Experimental: The HEK 293 cell line was obtained from the European Collection of Authenticated Cell Cultures (ECACC, cat. # 85120602, Salisbury, UK). The cells were grown in a monolayer culture in Dulbecco’s Modified Eagle’s Medium (DMEM) (PanEco, Moscow, Russia), supplemented with 2 mM L-glutamine, 1% of a penicillin/streptomycin solution (Capricorn Scientific, Ebsdorfergrund, Germany), and 10% of heat inactivated fetal bovine serum (HyClone, Cytiva, Marlborough, MA, USA) in a humidified atmosphere containing 5% of CO2 at 37 °C (Binder, Germany). For the assay, HEK 293 cells were seeded in a 96-well plate (Corning, NY, USA) in 100 μL of the complete culture medium, at a final density of 2 × 10^3 cells/well, and were cultured for 24 h for proper attachment. Subsequently, the medium was removed, and the cells were exposed to a tested inhibitor at different concentrations for 72 h in 100 μL of the fresh complete culture medium. The sensitivity of the cells to the compounds was detected using the vital dye Alamar Blue (Invitrogen, San Diego, CA, USA). The Alamar Blue assay was performed according to the procedure described by O’Brien et al.. After incubation with the tested bCSE inhibitors, 10 μL of the Alamar Blue reagent was added into each well, the cell culture plates were returned to the humidified incubator, and the fluorescence was read after 3 h. The plates were exposed to an excitation light of 545 nm wavelength, and emission at 600 nm was measured on the CLARIOstar Plus (BMG LABTECH GmbH, Ortenberg, Germany). To determine half-maximal cytotoxic concentration (CC50), a four-parameter sigmoidal curve model (GraphPad Prism 8 software) was fitted to the measurement data.

in vitro = assay: in vitro
Experimental: A test compound (final concentration 10 μM) was incubated at 37 °C in SGF, SIF, or human plasma for 2, 2, or 4 h, respectively. 100 μL aliquots were taken from each sample and 300 μL of acetonitrile containing an internal standard was added. […] All compounds were tested in triplicate. The percentage of a remaining compound after incubation was determined based on the chromatographic peak area of the sample after incubation and that of time zero (freshly prepared and injected) sample.

[7] = read-out: IC50 biochemical assay hCSE
[8] = IC50 biochemical assay bCSE, purified bCSE 0.02 μM, 100 μM L-cysteine, WSP5 probe, mean ± SD
[9] = IC50 (uM), bCSE enzymatic IC50, rounded, repeated in Table S13
[10] = IC50 (uM), bCSE enzymatic IC50, rounded, repeated in Table S14
[11] = IC50 (uM), bCSE enzymatic IC50, rounded, repeated in Table S15

T1 sequence (P32929 whole entry): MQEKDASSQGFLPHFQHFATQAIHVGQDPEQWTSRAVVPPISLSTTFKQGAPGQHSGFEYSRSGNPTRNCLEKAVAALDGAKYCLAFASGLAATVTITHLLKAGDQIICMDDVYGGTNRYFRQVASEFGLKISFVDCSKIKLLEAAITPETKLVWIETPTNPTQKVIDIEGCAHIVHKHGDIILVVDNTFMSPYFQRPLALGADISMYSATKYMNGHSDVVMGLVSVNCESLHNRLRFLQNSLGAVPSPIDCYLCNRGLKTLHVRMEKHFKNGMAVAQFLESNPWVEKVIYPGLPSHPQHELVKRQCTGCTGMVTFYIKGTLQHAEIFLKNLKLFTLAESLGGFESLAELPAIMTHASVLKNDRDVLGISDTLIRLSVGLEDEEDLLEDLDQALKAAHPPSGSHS
Chain of S. aureus cystathionine-γ-lyase (bCSE) (A0A0H3K724 entry or part of it): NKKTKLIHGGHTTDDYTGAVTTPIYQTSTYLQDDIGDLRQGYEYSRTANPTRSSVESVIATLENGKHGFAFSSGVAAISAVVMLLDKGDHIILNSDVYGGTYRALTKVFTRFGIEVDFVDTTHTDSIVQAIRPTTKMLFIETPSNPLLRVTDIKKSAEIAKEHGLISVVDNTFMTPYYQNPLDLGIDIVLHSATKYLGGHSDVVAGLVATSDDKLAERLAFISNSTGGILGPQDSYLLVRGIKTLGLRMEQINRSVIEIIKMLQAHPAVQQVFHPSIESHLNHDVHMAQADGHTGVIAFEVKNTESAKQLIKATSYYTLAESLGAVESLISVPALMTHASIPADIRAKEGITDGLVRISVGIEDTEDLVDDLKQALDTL

## C#CC[C@H](N)C(=O)O (racemic) [PAG, DL-propargylglycine, reference compound]
[1]
  Hill slope of dose-response curve toward hCSE: ~1.0
[1]; [7]
  IC50: 0.17 ± 0.02 µM
[2]
  Hill slope of dose-response curve toward bCSE: approximately two
[2]; [8]
  IC50: 24.3 ± 0.7 µM

## CO/N=C(\C(=O)N[C@@H]1C(=O)N2C(C(=O)[O-])=C(C[N+]3(C)CCCC3)CS[C@H]12)c1csc(N)n1 [Cefepim, cefepime]
[3]
  MIC of antibiotic alone: 256 µg/mL
[4]
  susceptibility of isolate (Sensitive to / Resistant to): Resistant to
[5]
  MIC of antibiotic alone: > 512 µg/mL

## O=C(O)c1cn(Cc2cccc3ccccc23)c2ccccc12 [Compound 1a]
[1]
  activity toward hCSE (in words): did not show noticeable activity
[1]; IC50 biochemical assay hCSE
  IC50: > 500 µM
[2]
  activity toward bCSE (in words): did not show noticeable activity
[2]; [8]
  IC50: > 500 µM
[6]
  CC50 at 72 h: 432 ± 37.5 µM

## O=C(O)c1cn(Cc2ccc3ccccc3c2)c2ccccc12 [Compound 1b]
[1]
  activity toward hCSE (in words): did not show noticeable activity
[1]; IC50 biochemical assay hCSE
  IC50: > 500 µM
[2]
  activity toward bCSE (in words): did not show noticeable activity
[2]; [9]
  IC50: > 500 µM
[2]; [10]
  IC50: > 500 µM
[2]; [8]
  IC50: > 500 µM
[6]
  CC50 at 72 h: 423 ± 71.8 µM

## O=C(O)c1cc2ccccc2n1Cc1ccc2ccccc2c1 [Compound 2b]
[1]; [7]
  IC50: 285 ± 14.6 µM
[2]; [9]
  IC50: 71 µM
[2]; [10]
  IC50: 71 µM
[2]; [11]
  IC50: 71 µM
[2]; [8]
  IC50: 71.1 ± 4.2 µM
[6]; HEK293 cells
  CC50 at 72 h: 368 ± 32.8 µM

## O=C(O)c1ccc2ccn(Cc3cccc4ccccc34)c2c1 [Compound 3a]
[1]; [7]
  IC50: 472 ± 37.3 µM
[2]; [9]
  IC50: 79 µM
[2]; [10]
  IC50: 79 µM
[2]; [11]
  IC50: 79 µM
[2]; [8]
  IC50: 79.3 ± 5.9 µM
[6]; HEK293 cells
  CC50 at 72 h: 452 ± 21.5 µM

## O=C(O)c1ccc2ccn(Cc3ccc4ccccc4c3)c2c1 [Compound 3b]
[1]; [7]
  IC50: > 500 µM
[2]; [10]
  IC50: 141 µM
[2]; [11]
  IC50: 141 µM
[2]; [8]
  IC50: 148 ± 46.4 µM
[6]; HEK293 cells
  CC50 at 72 h: 528 ± 47.1 µM

## O=C(O)c1ccc2c(ccn2Cc2ccc3ccccc3c2)c1 [Compound 4b]
[1]; [7]
  IC50: > 500 µM
[2]; [9]
  IC50: 110 µM
[2]; [10]
  IC50: 110 µM
[2]; [11]
  IC50: 110 µM
[2]; [8]
  IC50: 110 ± 11.7 µM
[6]; HEK293 cells
  CC50 at 72 h: 217 ± 93.2 µM

## O=C(O)c1cccn1Cc1cccc2ccccc12 [Compound 5a]
[1]; [7]
  IC50: > 500 µM
[2]; [9]
  IC50: 289 µM
[2]; [10]
  IC50: 289 µM
[2]; [11]
  IC50: 289 µM
[2]; [8]
  IC50: 289 ± 30.4 µM
[6]; HEK293 cells
  CC50 at 72 h: 460 ± 51.1 µM

## O=C(O)c1cccn1Cc1ccc2ccccc2c1 [Compound 5b]
[1]; [7]
  IC50: > 500 µM
[2]; [9]
  IC50: > 500 µM
[2]; [10]
  IC50: > 500 µM
[2]; [11]
  IC50: > 500 µM
[2]; [8]
  IC50: > 500 µM
[6]; HEK293 cells
  CC50 at 72 h: 848 ± 72.2 µM

## COc1cccc2c1C(=O)c1c(O)c3c(c(O)c1C2=O)C[C@@](O)(C(=O)CO)C[C@@H]3O[C@H]1C[C@H](N)[C@H](O)[C@H](C)O1 [Doxorubicin, reference compound]
[6]; HEK293 cells
  CC50 at 72 h: 1.3 ± 0.71 µM

## CNC(C)C1CCC(N)C(OC2C(N)CC(N)C(OC3OCC(C)(O)C(NC)C3O)C2O)O1 (centres unmarked) [Gentamicin, gentamicin]
[3]
  MIC of antibiotic alone: > 512 µg/mL
[4]
  susceptibility of isolate (Sensitive to / Resistant to): Resistant to

## C[C@@H](O)[C@H]1C(=O)N2C(C(=O)O)=C(S[C@@H]3CN[C@H](C(=O)N(C)C)C3)[C@H](C)[C@H]12 [Meropenem, meropenem]
[3]
  MIC of antibiotic alone: 16 µg/mL
[4]
  susceptibility of isolate (Sensitive to / Resistant to): Resistant to
[5]
  MIC of antibiotic alone: 64 µg/mL

## COc1ccc2[nH]c([S+]([O-])Cc3ncc(C)c(OC)c3C)nc2c1 (centres unmarked) [Omeprazole, reference compound]
In vitro; simulated gi fluid, 2 h, 10 μM
  Stability in SIF, % Remaining at 2 h: 90.5%
In vitro; simulated gi fluid, Stability in SGF
  remaining at 2 h, 10 μM: < 0.1%
In vitro; simulated gi fluid, Stability in SIF
  remaining at 2 h, 10 μM: 90.5 ± 10%

## CC(C)[N+](C)(CCOC(=O)C1c2ccccc2Oc2ccccc21)C(C)C [Propantheline, propantheline bromide, reference compound]
In vitro; 4 h, 10 μM
  Stability in human plasma, % Remaining at 4 h: 0.2%
In vitro; human, plasma, Stability in human plasma, % Remaining at 4 h
  remaining at 4 h, 10 μM: 0.21 ± 0.04%

## NCC[C@H](O)C(=O)N[C@@H]1C[C@H](N)[C@@H](O[C@H]2O[C@H](CN)[C@@H](O)[C@H](O)[C@H]2O)[C@H](O)[C@H]1O[C@H]1O[C@H](CO)[C@@H](O)[C@H](N)[C@H]1O [amikacin]
[4]
  susceptibility of isolate (Sensitive to / Resistant to): Resistant to

## Cc1nnc(SCC2=C(C(=O)O)N3C(=O)[C@@H](NC(=O)Cn4cnnn4)[C@H]3SC2)s1 [cefazolin]
[4]
  susceptibility of isolate (Sensitive to / Resistant to): Resistant to

## CO/N=C(\C(=O)N[C@@H]1C(=O)N2C(C(=O)O)=C(COC(C)=O)CS[C@H]12)c1csc(N)n1 [cefotaxime]
[4]
  susceptibility of isolate (Sensitive to / Resistant to): Resistant to

## CC(C)(O/N=C(\C(=O)N[C@@H]1C(=O)N2C(C(=O)[O-])=C(C[n+]3ccccc3)CS[C@H]12)c1csc(N)n1)C(=O)O [ceftazidime]
[4]
  susceptibility of isolate (Sensitive to / Resistant to): Resistant to

## CO/N=C(\C(=O)N[C@@H]1C(=O)N2C(C(=O)O)=C(CSc3nc(=O)c(=O)[nH]n3C)CS[C@H]12)c1csc(N)n1 [ceftriaxone]
[4]
  susceptibility of isolate (Sensitive to / Resistant to): Resistant to

## O=C(O)c1cn(C2CC2)c2cc(N3CCNCC3)c(F)cc2c1=O [ciprofloxacin]
[4]
  susceptibility of isolate (Sensitive to / Resistant to): Resistant to

## C[C@H]1COc2c(N3CCN(C)CC3)c(F)cc3c(=O)c(C(=O)O)cn1c23 [levofloxacin]
[4]
  susceptibility of isolate (Sensitive to / Resistant to): Resistant to

## CCN1CCN(C(=O)N[C@@H](C(=O)N[C@@H]2C(=O)N3[C@@H]2SC(C)(C)[C@@H]3C(=O)O)c2ccccc2)C(=O)C1=O [piperacillin]
[4]
  susceptibility of isolate (Sensitive to / Resistant to): Resistant to

## NC[C@H]1O[C@H](O[C@H]2[C@H](O)[C@@H](O[C@H]3O[C@H](CO)[C@@H](O)[C@H](N)[C@H]3O)[C@H](N)C[C@@H]2N)[C@H](N)C[C@@H]1O [tobramycin]
[4]
  susceptibility of isolate (Sensitive to / Resistant to): Resistant to
